Experimental data published in PMC6707612, “Cyclic-di-GMP binds to histidine kinase RavS to control RavS-RavR phosphotransfer and regulates the bacterial lifestyle transition between virulence and swimming” (PLoS Pathogens, 2019).

How the values were obtained:
[1] = test system: DHpCA^D637A, DHp-CA^G639A, DHp-CA^D640A, DHp-CA^I653A, DHp-CA^E657A and DHp-CA^L666A; assay: microscale thermophoresis (MST) binding, Ala-substituted DHp-CA proteins; design: species or system Xanthomonas campestris pv. campestris; details: compared with DHp-CA protein; fl-c-di-GMP used in the MST assay
Protocol: (§1) Fig 6 Arg^656 in the CA domain of RavS is a key residue for c-di-GMP binding. (a, b) c-di-GMP binds to the DHp-CA domain of RavS. PAS-A, PAS-B and DHp-CA in (a), and DHp and CA domains of RavS in (b), were purified and the interaction with c-di-GMP was measured by MST. Each assay was repeated three times. Standard deviations are shown. (c) Molecular docking model of the interaction between c-di-GMP and DHp-CA of RavS. c-di-GMP is shown as a ball-and-stick model and DHp-CA is shown in ribbon representation. (d) Schematic view of the predicted docking site between c-di-GMP and DHp-CA. Potential hydrogen bonds are indicated as blue dashed lines. Autodock software was used to predict the interaction. […] Ten recombinant proteins of the DHp-CA region, each containing a substitution of a putative essential residue involved in c-di-GMP binding, were used in the MST assay to quantify the Kd value of RavS–c-di-GMP binding. fl-c-di-GMP was used in the MST assay. […] The reactions were terminated with 5× SDS loading buffer and the products were separated by 12% SDS-PAGE, exposed to a phosphor screen and analysed by Typhoon FLA7000. […]
(§2) The interaction between c-di-GMP nucleotides and various proteins was measured by using MST with a fluorescein-labelled c-di-GMP (2′-Fluo-AHC-c-di-GMP, abbreviated as fl-c-di-GMP; 2′-Fluo-AHC-c-di-AMP, fl-c-di-AMP; 2′-Fluo-AHC-cGMP, fl-cGMP; Biolog, Germany). […]

[2] = test system: DHp-CA^S636A, DHp-CA^D638A and DHp-CA^L652A; assay: as above; design: species or system Xanthomonas campestris pv. campestris; details: compared with positive control DHp-CA protein; fl-c-di-GMP used in the MST assay
Protocol: as §1, §2

RavS^ΔN(R656A) = assay: in vitro phosphotransfer assay with Arg656-substituted RavS; format: biochemical, Xanthomonas campestris pv. campestris; details: 15 or 100 μM c-di-GMP
Protocol: as §1
An in vitro autophosphorylation assay was conducted as described in our previous study. […] After electrophoresis, gels were exposed to a phosphor screen (GE Healthcare) and the autoradiographic signals were detected by a Typhoon FLA7000 (GE Healthcare).

Nc1nc2c(ncn2[C@@H]2O[C@@H]3COP(=O)(O)O[C@H]4[C@@H](O)[C@H](n5cnc6c(=O)[nH]c(N)nc65)O[C@@H]4COP(=O)(O)O[C@H]3[C@H]2O)c(=O)[nH]1 [c-di-GMP, Cyclic di-GMP]
change in c-di-GMP binding affinity [1]: no significant change
fold increases in Kd values [2]: 1–2 fold
stimulation of phosphotransferase activity of RavS^ΔN(R656A)~P towards RavR^ΔEAL (RavS^ΔN(R656A)): failed to stimulate
